Test: Part B: safety, treatment-emergent adverse events, DLT and MTD
Type: in vivo
Excerpt: For the purpose of the present invention, the adverse events were graded as per the National Cancer Institute's, Common Terminology Criteria for Adverse Events (NCI-CTCAE) Version 4.03 and Version 5.0 (https://evs.nci.nih.gov/ftp1/CTCAE/About.html). It is a descriptive terminology which can be utilized for Adverse Event (AE) reporting.
AEs were graded as per NCI-CTCAE Version 5.0. In the present study, along with others most common AEs for which patients were monitored were thrombocytopenia, neutropenia and anemia, any AE reported by the patient after the completion of AE collection period and considered related to the study drug was reported.
Dose Limiting Toxicity (DLT) is defined as the occurrence of any of the following unless clearly and incontrovertibly related to the underlying disease. The hematological DLTs were defined as per the Phase of CML: • a) Grade 3 or higher, or other non-hematological toxicity, including nausea, vomiting and diarrhea, and refractory to standard antiemetic therapy except alopecia and nail disorders; • b) Missed ≥25% of doses over 28 days due to toxicity in Cycle 1; and • c) Any grade of toxicity requiring dose reduction or discontinuation of IMP within the 28-days DLT assessment period (Cycle 1).
Safety Parameters: Parts B and C: Descriptive summaries were provided for the safety variables collected. Continuous variables were summarized using mean, standard deviation, minimum, median, and maximum. Categorical variables were summarized using frequency counts and percentages. For time-to-event variables, other percentiles were presented. In addition, summaries of AEs by intensity, seriousness, frequency, and relationship to IMP are presented. Adverse events (AE) s were coded using the Medical Dictionary for Regulatory Activities (MedDRA) and summarized by System Organ Class (SOC) and Preferred Term (PT).
In this study, the dose-escalation cohort started with an accelerated titration study design (ATD) and shifted to a 3±3 design when subjects in the preceding ATD cohort experienced either grade 2 or higher adverse events (AEs) or dose-limiting toxicity (DLT) during Cycle 1 that was not clearly and incontrovertibly related to the underlying disease or concomitant medications. The DLT period consisted of 28 days (Cycle 1). Subjects experiencing DLTs were managed with dose delays and/or discontinuation and continued in the study until disease progression. Decisions to advance to a succeeding dose level occurred after the evaluation of safety and tolerability data for a given dose level.
For the cohorts, where the 3±3 design applies, 3 subjects were enrolled initially. If 2 of these subjects experienced a Grade 2 or more toxicity (that was not clearly and incontrovertibly related to the underlying disease or concomitant medications), subsequent cohorts were escalated according to smaller increments. Further, if there were no DLTs in the first 3 subjects, dose escalation to the next higher dose level was allowed to proceed. If 1 of the 3 subjects experienced a DLT, that dose level was expanded to 6 subjects (3 additional subjects were enrolled). If 2 subjects at a given dose level experienced a DLT, the MTD was considered to have been exceeded. The next lower dose level was expanded to 6 subjects, or if 6 subjects had already been enrolled and no more than 1 of the 6 subjects experienced a DLT, then this lower dose level was considered the MTD. Additional subjects were enrolled in dose escalation cohorts for further assessment of safety and efficacy of the compound of Formula 1 at doses that were tolerated (i.e., doses that have <2 DLTs in 6 enrolled subjects or <1 DLT in 3 enrolled subjects). Thus 204 mg was arrived at as MTD. A subject experiencing a DLT was allowed to continue therapy with a reduced dose. Subjects who experienced a DLT and recovered were treated at the next lower dose level until disease progression or other events requiring further dose reduction existed. […]

Cc1ccc(C(=O)NNC(=O)c2c(C)cccc2Cl)cc1C#Cc1cnc2ccccc2c1 [compound of Formula I, N′-(2-chloro-6-methylbenzoyl)-4-methyl-3-[2-(3-quinolyl)ethynyl]-benzohydrazide]
4 No of pts: Amylase increased, Grade 3/4 (Overall (N = 53)) | Lipase increased, Grade 3/4 (Overall (N = 53)) | Anemia, Grade 3/4 (Prior Ponatinib (N = 22)) | Fatigue, Any grade (Prior Ponatinib (N = 22)) | Headache, Any grade (Prior Ponatinib (N = 22)) | Pruritis, Any grade (Prior Ponatinib (N = 22)) | Pyrexia, Any grade (Prior Ponatinib (N = 22)) | Rhinitis, Any grade (Prior Ponatinib (N = 22)) | TEAEs: Dose modifications, Grade 3/4 (Prior Ponatinib (N = 22)) | Vomiting, Any grade (Prior Ponatinib (N = 22))
3 No of pts: Amylase increased, Any grade (Prior Ponatinib (N = 22)) | Back pain, Any grade (Prior Ponatinib (N = 22)) | Constipation, Any grade (Prior Ponatinib (N = 22)) | Decreased appetite, Any grade (Prior Ponatinib (N = 22)) | Neutropenia, Any grade (Prior Ponatinib (N = 22)) | Thrombocytopenia, Grade 3/4 (Prior Ponatinib (N = 22))
11 No of pts: Anemia, Any grade (Overall (N = 53)) | Cough, Any grade (Overall (N = 53)) | TEAEs: Dose modifications, Any grade (Overall (N = 53))
34 No of pts: All TEAEs, Grade 3/4 (Overall (N = 53))
41.5%: thrombocytopenia (any grade)
10 No of pts: Thrombocytopenia, Grade 3/4 (Overall (N = 53)) | SAEs, Any grade (Prior Ponatinib (N = 22))
2 No of pts: TEAEs Leading to drug withdrawal, Grade 3/4 (Overall (N = 53)) | Amylase increased, Grade 3/4 (Prior Ponatinib (N = 22)) | Death, Any grade (Prior Ponatinib (N = 22)) | Lipase increased, Any grade (Prior Ponatinib (N = 22)) | Lipase increased, Grade 3/4 (Prior Ponatinib (N = 22)) | Myalgia, Any grade (Prior Ponatinib (N = 22)) | Nasopharyngitis, Any grade (Prior Ponatinib (N = 22)) | Neutropenia, Grade 3/4 (Prior Ponatinib (N = 22)) | TEAEs Leading to drug withdrawal, Any grade (Prior Ponatinib (N = 22)) | TEAEs Leading to drug withdrawal, Grade 3/4 (Prior Ponatinib (N = 22))
15 No of pts: TEAEs Related to comp of Formula I, Any grade (Prior Ponatinib (N = 22))
11 subjects: discontinued from the study (41 subjects, dose escalation cohorts)
86.3%: grade 3 or 4 AEs (19 patients treated with ponatinib)
22%: diarrhea (any grade)
8 No of pts: Constipation, Any grade (Overall (N = 53)) | Headache, Any grade (Overall (N = 53)) | Nausea, Any grade (Overall (N = 53)) | Neutropenia, Any grade (Overall (N = 53)) | Pyrexia, Any grade (Overall (N = 53)) | TEAEs: Dose modifications, Any grade (Prior Ponatinib (N = 22))
5 No of pts: Amylase increased, Any grade (Overall (N = 53)) | Lipase increased, Any grade (Overall (N = 53)) | Cough, Any grade (Prior Ponatinib (N = 22))
80%: grade 3 or 4 AEs (28 patients, 3 or more TKI treatments)
14 No of pts: TEAEs Related to comp of Formula I, Grade 3/4 (Overall (N = 53))
7 No of pts: Anemia, Grade 3/4 (Overall (N = 53)) | Back pain, Any grade (Overall (N = 53)) | Fatigue, Any grade (Overall (N = 53)) | Myalgia, Any grade (Overall (N = 53)) | Neutropenia, Grade 3/4 (Overall (N = 53)) | Vomiting, Any grade (Overall (N = 53)) | Diarrhoea, Any grade (Prior Ponatinib (N = 22)) | Nausea, Any grade (Prior Ponatinib (N = 22)) | SAEs, Grade 3/4 (Prior Ponatinib (N = 22)) | TEAEs Related to comp of Formula I, Grade 3/4 (Prior Ponatinib (N = 22)) | TEAEs: Dose discontinued and restarted, Grade 3/4 (Prior Ponatinib (N = 22)) | Thrombocytopenia, Any grade (Prior Ponatinib (N = 22))
6 No of pts: Decreased appetite, Any grade (Overall (N = 53)) | Nasopharyngitis, Any grade (Overall (N = 53)) | Pruritis, Any grade (Overall (N = 53)) | Rhinitis, Any grade (Overall (N = 53)) | TEAEs Leading to drug withdrawal, Any grade (Overall (N = 53)) | TEAEs: Dose modifications, Grade 3/4 (Overall (N = 53)) | Anemia, Any grade (Prior Ponatinib (N = 22))
4 subjects: discontinued due to disease progression (41 subjects, dose escalation) | discontinued due to AEs (41 subjects, dose escalation (1 each at 48, 126, 174 and 204 mg))
12 No of pts: Diarrhoea, Any grade (Overall (N = 53)) | SAEs, Grade 3/4 (Overall (N = 53)) | TEAEs: Dose discontinued and restarted, Grade 3/4 (Overall (N = 53)) | TEAEs: Dose discontinued and restarted, Any grade (Prior Ponatinib (N = 22))
33.4%: grade 3 or 4 AEs (6 patients, prior 2 TKI treatments)
1 No of pts: Diarrhoea, Grade 3/4 (Overall (N = 53)) | Pyrexia, Grade 3/4 (Overall (N = 53)) | Diarrhoea, Grade 3/4 (Prior Ponatinib (N = 22)) | Pyrexia, Grade 3/4 (Prior Ponatinib (N = 22))
19 No of pts: All TEAEs, Grade 3/4 (Prior Ponatinib (N = 22))
51 No of pts: All TEAEs, Any grade (Overall (N = 53))
20 No of pts: SAEs, Any grade (Overall (N = 53)) | TEAEs: Dose discontinued and restarted, Any grade (Overall (N = 53))
1 subject: discontinued from the study due to AE (10 subjects, dose expansion at 174 mg)
11.3%: AEs leading to permanent discontinuation (6 pts)
35 No of pts: TEAEs Related to comp of Formula I, Any grade (Overall (N = 53))
20.8%: Cough (any grade) | anemia (any grade)
0 No of pts: Back pain, Grade 3/4 (Overall (N = 53)) | Constipation, Grade 3/4 (Overall (N = 53)) | Cough, Grade 3/4 (Overall (N = 53)) | Death, Grade 3/4 (Overall (N = 53)) | Decreased appetite, Grade 3/4 (Overall (N = 53)) | Fatigue, Grade 3/4 (Overall (N = 53)) | Headache, Grade 3/4 (Overall (N = 53)) | Myalgia, Grade 3/4 (Overall (N = 53)) | Nasopharyngitis, Grade 3/4 (Overall (N = 53)) | Nausea, Grade 3/4 (Overall (N = 53)) | Pruritis, Grade 3/4 (Overall (N = 53)) | Rhinitis, Grade 3/4 (Overall (N = 53)) | Vomiting, Grade 3/4 (Overall (N = 53)) | Back pain, Grade 3/4 (Prior Ponatinib (N = 22)) | Constipation, Grade 3/4 (Prior Ponatinib (N = 22)) | Cough, Grade 3/4 (Prior Ponatinib (N = 22)) | Death, Grade 3/4 (Prior Ponatinib (N = 22)) | Decreased appetite, Grade 3/4 (Prior Ponatinib (N = 22)) | Fatigue, Grade 3/4 (Prior Ponatinib (N = 22)) | Headache, Grade 3/4 (Prior Ponatinib (N = 22)) | Myalgia, Grade 3/4 (Prior Ponatinib (N = 22)) | Nasopharyngitis, Grade 3/4 (Prior Ponatinib (N = 22)) | Nausea, Grade 3/4 (Prior Ponatinib (N = 22)) | Pruritis, Grade 3/4 (Prior Ponatinib (N = 22)) | Rhinitis, Grade 3/4 (Prior Ponatinib (N = 22)) | Vomiting, Grade 3/4 (Prior Ponatinib (N = 22))
22 No of pts: Thrombocytopenia, Any grade (Overall (N = 53)) | All TEAEs, Any grade (Prior Ponatinib (N = 22))

Reference: patent US20260069584A1, “METHODS OF TREATING CHRONIC MYELOID LEUKEMIA USING THE TYROSINE KINASE INHIBITOR VODOBATINIB” (Sun Pharma Advanced Research Company Ltd., priority 2022, published 2026)
